Test systems include 786-0; A498; ACHN; CAKI-1; HCT-116; HT-29; Hs-578T; KM12; NCI/ADR-RES; OVCAR-4; OVCAR-8; PC-3; RPMI-8226; SK-MEL-2; SNB-75; SR; UACC-257; UACC-62; UO-31; KM-20L2.
Holding throughout (experiment): NCI anticancer screen, dose series, 48 h

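Each compound was tested at five concentrations against cells in 96-well plates for 48 hours. GI50 = concentration required for 50% inhibition of growth.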 Activity calls are given as the source filed them. No stated cut-off is given here; in the data, active = GI50 up to about 1.1 µM and inactive = higher. Where only a bound is given, the exact number is not on record here.

Take `CC(=O)c1sc2c(c1OC(=O)c1ccc(Cl)cc1Cl)c(=O)n(-c1ccccc1)c(=S)n2-c1ccccc1`: the GI50 was 0.47 µM (active) in the assay on 786-0; 0.286 µM (active) with A498; 0.321 µM (active) in the assay with ACHN; 1.43 µM (inactive) with CAKI-1; 2.96 µM (inactive) in the assay with HCT-116; 0.28 µM (active) in the assay on HT-29. The GI50 with Hs-578T is 0.1 µM (active); in the assay on KM12, 4.14 µM (inactive); with NCI/ADR-RES it was 1.05 µM (active); with OVCAR-4, 13.2 µM (inactive); with OVCAR-8, 0.418 µM (active); in the assay on PC-3 it was 0.608 µM (active). Further, the GI50 with RPMI-8226 was 0.213 µM (active); in the assay on SK-MEL-2, 0.264 µM (active); in the assay on SNB-75, 0.472 µM (active); with SR, 0.501 µM (active); in the assay with UACC-257, 3.88 µM (inactive); with UACC-62, 10.8 µM (inactive). Besides, in the assay on UO-31, the GI50 was 0.347 µM (active).

For the molecule `O=C1C(c2c(O)[nH]c3ccc([N+](=O)[O-])cc23)=Nc2ccccc21`, the GI50 was 59.8 µM (inactive) in the assay with 786-0; 98.2 µM (inactive) in the assay on A498; 40.5 µM (inactive) with ACHN; > 100 µM (inactive) in the assay on CAKI-1; > 100 µM (inactive) in the assay on HCT-116; > 100 µM (inactive) with HT-29. Also, the GI50 is 56.9 µM (inactive) in the assay on Hs-578T; > 100 µM (inactive) in the assay on KM12; > 100 µM (inactive) with NCI/ADR-RES; > 100 µM (inactive) in the assay on OVCAR-4; > 100 µM (inactive) in the assay on OVCAR-8; 83.6 µM (inactive) in the assay with PC-3. For the same molecule, the GI50 in the assay on RPMI-8226 is > 100 µM (inactive); in the assay with SK-MEL-2 it was 43.5 µM (inactive); in the assay with SNB-75, 13.8 µM (inactive); with SR it was 30.3 µM (inactive); in the assay with UACC-257 it was > 100 µM (inactive); in the assay with UACC-62, > 100 µM (inactive). Also, in the assay with UO-31, the GI50 is > 100 µM (inactive).

With `O=c1c2sc3ccccc3sc=2c(=O)c2c(Cl)c(Cl)c(Cl)c(Cl)c12`, the GI50 in the assay on 786-0, with A498, in the assay on ACHN, in the assay on CAKI-1, in the assay on HCT-116 and in the assay on HT-29 was > 100 µM (inactive) in each case. Further, the GI50 with Hs-578T was 38.4 µM (inactive); in the assay with KM12, > 100 µM (inactive); in the assay with NCI/ADR-RES it was > 100 µM (inactive); in the assay on OVCAR-4, > 100 µM (inactive); in the assay on OVCAR-8, > 100 µM (inactive); in the assay on PC-3, > 100 µM (inactive). Also, the GI50 with RPMI-8226 was 42 µM (inactive); in the assay on SK-MEL-2, > 100 µM (inactive); with SNB-75, > 100 µM (inactive); in the assay with SR it was > 100 µM (inactive); with UACC-257, > 100 µM (inactive); in the assay with UACC-62, > 100 µM (inactive). For the same molecule, in the assay with UO-31, the GI50 was > 100 µM (inactive).

Consider `COC(=O)CNC(=O)C(Cc1ccccc1)NC(=O)c1ccc(-c2ccc(Cl)cc2Cl)o1` (configuration not stated), for which the GI50 was 16.9 µM (inactive) in the assay on 786-0; 10.7 µM (inactive) with A498; 18.9 µM (inactive) in the assay on ACHN; 19.2 µM (inactive) with CAKI-1; 14.8 µM (inactive) with HCT-116; 14.4 µM (inactive) in the assay with HT-29. Also, the GI50 in the assay with Hs-578T is 15.3 µM (inactive); with KM12, 24.4 µM (inactive); in the assay with NCI/ADR-RES, 21.8 µM (inactive); in the assay with OVCAR-4 it was 21.5 µM (inactive); with OVCAR-8 it was 25.1 µM (inactive); in the assay with PC-3, 21.1 µM (inactive). In addition, the GI50 in the assay on RPMI-8226 is 12.3 µM (inactive); in the assay with SK-MEL-2 it was 28.3 µM (inactive); with SNB-75, 30.9 µM (inactive); in the assay with SR, 14.9 µM (inactive); in the assay on UACC-257 it was 17.8 µM (inactive); with UACC-62 it was 13.6 µM (inactive). In the assay on UO-31, the GI50 was 52.6 µM (inactive).

In the case of `C(=N\c1ccc2c(c1)Cc1ccccc1-2)/c1ccccn1`, the GI50 in the assay on 786-0 is 34.8 µM (inactive); in the assay on A498, 44.3 µM (inactive); in the assay with ACHN, > 100 µM (inactive); with CAKI-1, > 100 µM (inactive); in the assay with HCT-116, 30.5 µM (inactive); in the assay with HT-29, 63.1 µM (inactive). For the same molecule, the GI50 in the assay on Hs-578T is 92.3 µM (inactive); in the assay with KM12, 89.3 µM (inactive); in the assay with NCI/ADR-RES, 91.2 µM (inactive); with OVCAR-4, > 100 µM (inactive); in the assay with OVCAR-8, > 100 µM (inactive); in the assay on PC-3, 38.7 µM (inactive). The GI50 in the assay on RPMI-8226 was > 10 µM (inactive); in the assay with SK-MEL-2, 43.3 µM (inactive); with SNB-75, 67.6 µM (inactive); with SR it was 24.9 µM (inactive); in the assay on UACC-257 it was 27.1 µM (inactive); in the assay on UACC-62, 89.3 µM (inactive). Besides, the GI50 in the assay with UO-31 is > 100 µM (inactive).

Take `Cc1ccc2[nH]c3c(c2c1)C1CCC(C(C)(C)C)CC1C1C(=O)N(c2ccc(Oc4ccccc4)cc2)C(=O)C31` (configuration not stated): the GI50 with 786-0 is 4.72 µM (inactive); in the assay with A498, 9.57 µM (inactive); in the assay on ACHN, 22.6 µM (inactive); in the assay on CAKI-1 it was 12.7 µM (inactive); in the assay on HCT-116 it was 18.5 µM (inactive); with HT-29 it was > 79.6 µM (inactive). Also, the GI50 is 2.81 µM (inactive) with Hs-578T; > 100 µM (inactive) in the assay on KM12; 20.5 µM (inactive) in the assay with NCI/ADR-RES; 14.2 µM (inactive) in the assay with OVCAR-4; 8.73 µM (inactive) with OVCAR-8; 67.9 µM (inactive) in the assay on PC-3. Besides, the GI50 in the assay with RPMI-8226 was 15.8 µM (inactive); in the assay on SK-MEL-2 it was 34.9 µM (inactive); with SNB-75, 2.32 µM (inactive); with SR, 1.05 µM (active); in the assay with UACC-257 it was > 100 µM (inactive); with UACC-62 it was 47.1 µM (inactive). Moreover, in the assay on UO-31, the GI50 is 41 µM (inactive).

`CCC/C(Cl)=N/OC(=O)Nc1cccc(F)c1`: the GI50 is 1.69 µM (inactive) in the assay on 786-0; > 10 µM (inactive) in the assay on A498; 1.55 µM (inactive) in the assay with ACHN; 3.33 µM (inactive) with CAKI-1; 4.19 µM (inactive) in the assay on HCT-116; 4.91 µM (inactive) in the assay on HT-29. Besides, the GI50 in the assay on Hs-578T was 9.75 µM (inactive); in the assay on KM12, 15.7 µM (inactive); with NCI/ADR-RES, 6.04 µM (inactive); with OVCAR-4, 9.79 µM (inactive); in the assay with OVCAR-8, 16 µM (inactive); in the assay on PC-3, 17 µM (inactive). Also, the GI50 in the assay on RPMI-8226 is 1.96 µM (inactive); with SK-MEL-2 it was 18.7 µM (inactive); in the assay with SNB-75 it was 3.4 µM (inactive); with SR, 0.453 µM (active); in the assay with UACC-257, 14.8 µM (inactive); in the assay with UACC-62, 14.4 µM (inactive). Also, the GI50 with UO-31 is 8.97 µM (inactive).

As for `[N-]=[N+]=NC1C(Cl)C(=O)NC(=O)N1[C@H]1C[C@H](O)[C@@H](CO)O1` (some centres not stated), the GI50 in the assay on 786-0, with A498, with ACHN, with CAKI-1, with HT-29 and with KM-20L2 was > 100 µM (inactive) each time. In addition, the GI50 in the assay with KM12, with OVCAR-4, with OVCAR-8, with SK-MEL-2, with SNB-75 and in the assay on UACC-257 was > 100 µM (inactive) throughout. For the same molecule, the GI50 in the assay on UACC-62 and in the assay on UO-31 was > 100 µM (inactive) each time.
